# Where two headings read alike, the source gives them in different places.
# Target: T1, Jack Bean Urease (Canavalia ensiformis, UniProt P07374)
# T1 construct: purchased Millipore Sigma U1500
# Type: biochemical
# Settings: for Urease inhibition (in words): 0.1 g in synthetic urine with urease
# Experimental: To test the efficiency of different Green Tea Extracts, three different samples were tested: • Sample 1′: pure EGCG: Cas. […] 84650-60-2, EC no. […] The test procedure per sample and for a reference without Green Tea Extract was the following, all steps were performed at ambient lab temperature (23±1° C.) and atmospheric pressure:
# Synthetic Urine is prepared by dissolving 2% w/w urea, 0.9% w/w sodium chloride, 0.11% w/w magnesium sulfate monohydrate, 0.079% w/w calcium chloride monohydrate in deionized water. Urease stock solution (23.5 U/ml) is made by dissolving Jack Bean Urease (Catalog number U1500, Millipore Sigma, St. Louis, MO, USA, or equivalent) in deionized water.
# 67.5 ml of Synthetic urine were added to a beaker and the pH of the Synthetic urine (Urine pH) was determined analogously to the Urease Activity test method described above (Urine pH).
# 0.1 g of the corresponding Green Tea Extract—except for the reference sample—were added to the beaker and the solution stirred for 15 min. Afterwards the pH of the solution is determined.
# 7.5 ml of the Urease stock solution were added and the pH was monitored, while the stirring of the solution was maintained.
# From the values, the difference in pH mediated by Urease was calculated from the difference of the pH of the Synthetic urine and the final pH determined after addition of the Urease stock.
# T1 sequence (P07374 whole entry, looked up): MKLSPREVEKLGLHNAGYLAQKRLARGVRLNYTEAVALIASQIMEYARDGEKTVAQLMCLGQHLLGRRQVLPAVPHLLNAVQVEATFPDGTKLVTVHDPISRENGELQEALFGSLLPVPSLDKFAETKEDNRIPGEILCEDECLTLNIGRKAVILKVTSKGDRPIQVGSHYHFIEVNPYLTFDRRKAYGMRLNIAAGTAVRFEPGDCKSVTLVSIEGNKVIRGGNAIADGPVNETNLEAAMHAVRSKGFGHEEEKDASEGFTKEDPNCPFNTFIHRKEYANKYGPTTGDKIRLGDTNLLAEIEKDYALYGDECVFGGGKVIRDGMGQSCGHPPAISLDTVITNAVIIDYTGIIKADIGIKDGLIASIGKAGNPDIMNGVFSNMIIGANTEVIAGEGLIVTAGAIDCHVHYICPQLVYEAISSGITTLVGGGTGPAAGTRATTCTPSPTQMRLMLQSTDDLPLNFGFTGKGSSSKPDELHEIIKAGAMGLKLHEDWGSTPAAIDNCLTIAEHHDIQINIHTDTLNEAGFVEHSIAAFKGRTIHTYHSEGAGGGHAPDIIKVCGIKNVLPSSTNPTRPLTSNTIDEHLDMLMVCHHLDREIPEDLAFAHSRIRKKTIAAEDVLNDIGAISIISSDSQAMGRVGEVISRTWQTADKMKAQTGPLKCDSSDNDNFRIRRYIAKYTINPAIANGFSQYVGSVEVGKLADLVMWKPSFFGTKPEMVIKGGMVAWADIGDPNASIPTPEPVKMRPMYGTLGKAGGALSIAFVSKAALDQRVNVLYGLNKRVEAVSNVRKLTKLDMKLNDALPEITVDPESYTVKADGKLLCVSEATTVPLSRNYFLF
smiles,measurement,setting,value
"O=C(O[C@@H]1Cc2c(O)cc(O)cc2O[C@@H]1c1cc(O)c(O)c(O)c1)c1cc(O)c(O)c(O)c1 [Sample 1′, Epigallocatechin gallate]",Green Tea pH,"0.1 g in 67.5 ml Synthetic urine, stirred 15 min, before urease addition",5.7
same,Urease inhibition (in words),,inhibit Urease
same,Urease inhibition (in words),listed as EGCG,less efficient in its pure form
same,End pH,"after adding 7.5 ml Urease stock solution (23.5 U/ml), pH stabilized (typically 15 to 30 min)",7.7
same,pH difference,final pH minus pH of the Synthetic urine,1.2

# From patent publication US20230363954A1, “METHOD FOR MAKING AN ABSORBENT ARTICLE AND ABSORBENT ARTICLE” (The Procter & Gamble Company, priority 2022, published 2023)
